Measurements from patent publication US8975295B2, “Modulation of zinc levels to improve tissue properties” (Precision Dermatology, Inc., priority 2002, dated 2015).
Read-outs that look alike come from different tables or passages of the source.

What was measured:
elastase = assay: Elastase activity with divalent cations in PBS, read at 405 nm; type: biochemical; details: for Elastase activity: 0.005M to 0.01M cation concentration in PBS; for sensitivity of elastase to the cation (comparison of the ions): read every minute for 15 minutes
Protocol: An assay was run that involved varying concentrations of each divalent cation, ranging from concentrations of 0.005M to 1.0M, in phosphate buffered saline (PBS). The positive control contained no cations, while the negative control contained no elastase. Solutions were read at 405 nm every minute for 15 minutes under controlled conditions. The optical density value of the negative control, which represented background interference, was subtracted from each result. These corrected optical density values from the two trials were averaged.

murine skin = details: for local irritation of skin: 21 days topical
Protocol: (§1) To prepare these solutions, a 1.0 M stock of zinc acetate [ZnAc*(H2O)2] (Mallinkrodt Lot 8740 KPRK) was prepared in sterile phosphate buffered saline (PBS, pH 7.2, Gibco BRL Lot #1111327) by dissolving 109.75 g in 500 mL. To 0.2 ml of Cetaphil® moisturizer base was added 20 μl of solution a, b, c, or d depending upon group (corresponding to Groups “A,” “B,” “C,” or “D”). For group A, added 20 μl PBS alone to 180 μl Cetaphil×84 tubes. For group B, added 20 μl 1.0M Zn to 180 μl Cetaphil×84 tubes. For group C, added 200 μl of 1.0M Zn to 19.8 ml PBS, vortexed, labeled as 0.01M Zn, and added 20 μl of […] to 180 μl Cetaphil×84 tubes. For group D, added 200 μl 0.01M Zn to 19.8 ml PBS, vortexed, labeled as 0.1 mM Zn, and added 20 μl […] to 180 μl Cetaphil×84 tubes. After addition of samples to moisturizer base, the samples were mixed to homogeneity and stored at 4° C. overnight. At N=4 per treatment group, C57 Black Six mice at 8 weeks of age were anesthetized with 3% isoflurane by inhalation, and were shaved at mid-scapular dorsal region. Moisturizer was applied daily at 0.2 cc per day for each group for a 21 day period. After 21 days application, the treated skin segment was harvested en bloc and subdivided into three equal portions: a cranial portion, a left lateral portion, and a right lateral portion. The cranial portion and the left lateral portion were fixed in 10% neutral buffered formalin for 12-16 hours, then rinsed in 70% ethanol and embedded in paraffin. The right lateral portion was snap frozen in OCT medium at the time of harvest and stored at −35° C. until use.
All procedures and analyses were performed by blinded observers.

epidermis = tested on: epidermis
Protocol: as §1
Paraffin-embedded specimens from animals treated in example 1 above were sectioned at 4-6 microns, deparaffinized, and stained with a combination of Verhoeff elastica stain and the Masson trichrome stain for morphological assessment of epidermal thickness. All procedures and analyses were performed by blinded observers. […] Images were analyzed using Image Pro Plus software (Media Cybernetics, Silver Spring, Md.) to determine total cross-sectional area of epidermis over standardized lengths. Mean and standard error were assessed using Statview (Abacus Concepts, Berkeley, Calif.), with comparisons made using ANOVA repeated measures and significance determined at 95% with post-hoc testing using Fisher PLSD or Scheffe F-test.
Paraffin-embedded specimens from animals were treated in Example 1 except that the doses of 10.0 μM Zn^++, 1.0 μM Zn^++, 0.1 μM Zn^++, and the control were applied for 42 days. Specimens were fixed and embedded as above, sectioned at 4-6 microns, deparaffinized, and stained with a combination of Verhoeff elastica stain and the Masson trichrome stain for morphological assessment of epidermal thickness. All procedures and analyses were performed by blinded observers. […] Images were analyzed using Image Pro Plus software (Media Cybernetics, Silver Spring, Md.) to determine total cross-sectional area of epidermis over standardized lengths. Mean and standard error were assessed using Statview (Abacus Concepts, Berkeley, Calif.), with comparisons made using ANOVA repeated measures and significance determined at 95% with post-hoc testing using Fisher PLSD or Scheffe F-test.

hypodermal brown fat = details: 21 days, base only 456566.375
Protocol: as §1
(§2) All procedures and analyses were performed by blinded observers. […] Images were analyzed using Image Pro Plus software (Media Cybernetics, Silver Spring, Md.) to determine total cross-sectional area of epidermis over standardized lengths. Mean and standard error were assessed using Statview (Abacus Concepts, Berkeley, Calif.), with comparisons made using ANOVA repeated measures and significance determined at 95% with post-hoc testing using Fisher PLSD or Scheffe F-test.

deep white fat = details: 10 μM Zn++, 21 days, lateral abdomen; base only 29375.425; P = 0.0001
Protocol: as §2

Elastase activity (elastase)	sensitivity of elastase to the cation (comparison of the ions) (elastase)	Compound	elastin content of skin (black elastic fibers, Verhoeff Elastica stain) (murine skin; 21 days daily topical, 10 μM, 1.0 mM, 100 mM Zn++ in moisturizer base vs base only)	local irritation of skin (murine skin; high dose, 100 mM Zn++ (Z high))	local irritation of skin (murine skin; lower doses (Z low, Z med))	Epidermal area across standardized epidermal lengths, Mean (epidermis; 0.1 μM Zn++ (Z low), 42 days, base only 6728.286)	Epidermal area across standardized epidermal lengths, Mean (epidermis; 1.0 μM Zn++ (Z med), 42 days, base only 6728.286)	Epidermal area across standardized epidermal lengths, Mean (epidermis; 10 μM Zn++ (Z high), 42 days, base only 6728.286, P = 0.0014)	Epidermal area across standardized epidermal lengths, Mean (epidermis; 10.0 μM Zn++ (Z low), 21 days, base only 18221.646)	Epidermal area across standardized epidermal lengths, Mean (epidermis; 1.0 mM Zn++ (Z med), 21 days, base only 18221.646)	Epidermal area across standardized epidermal lengths, Mean (epidermis; 100 mM Zn++ (Z high), 21 days, base only 18221.646)	Cross-sectional hypodermal adipose area across standardized epidermal lengths, Mean (hypodermal brown fat; 10 μM Zn++ (Z low), P=0.0001)	Cross-sectional hypodermal adipose area across standardized epidermal lengths, Mean (hypodermal brown fat; 1.0 mM Zn++ (Z med))	Cross-sectional hypodermal adipose area across standardized epidermal lengths, Mean (hypodermal brown fat; 100 mM Zn++ (Z high))	Cross-sectional deep adipose area across standardized epidermal lengths, Mean (deep white fat)	elastase function as the concentration of zinc-containing components increases (elastase; increasing concentration)
increased	most sensitive	[Ca+2] [Ca^2+]	–	–	–	–	–	–	–	–	–	–	–	–	–	–
increased	least sensitive	[Mg+2] [Mg^2+]	–	–	–	–	–	–	–	–	–	–	–	–	–	–

Compound	Elastase activity (elastase)	sensitivity of elastase to the cation (comparison of the ions) (elastase)	elastin content of skin (black elastic fibers, Verhoeff Elastica stain) (murine skin; 21 days daily topical, 10 μM, 1.0 mM, 100 mM Zn++ in moisturizer base vs base only)	local irritation of skin (murine skin; high dose, 100 mM Zn++ (Z high))	local irritation of skin (murine skin; lower doses (Z low, Z med))	Epidermal area across standardized epidermal lengths, Mean (epidermis; 0.1 μM Zn++ (Z low), 42 days, base only 6728.286)	Epidermal area across standardized epidermal lengths, Mean (epidermis; 1.0 μM Zn++ (Z med), 42 days, base only 6728.286)	Epidermal area across standardized epidermal lengths, Mean (epidermis; 10 μM Zn++ (Z high), 42 days, base only 6728.286, P = 0.0014)	Epidermal area across standardized epidermal lengths, Mean (epidermis; 10.0 μM Zn++ (Z low), 21 days, base only 18221.646)	Epidermal area across standardized epidermal lengths, Mean (epidermis; 1.0 mM Zn++ (Z med), 21 days, base only 18221.646)	Epidermal area across standardized epidermal lengths, Mean (epidermis; 100 mM Zn++ (Z high), 21 days, base only 18221.646)	Cross-sectional hypodermal adipose area across standardized epidermal lengths, Mean (hypodermal brown fat; 10 μM Zn++ (Z low), P=0.0001)	Cross-sectional hypodermal adipose area across standardized epidermal lengths, Mean (hypodermal brown fat; 1.0 mM Zn++ (Z med))	Cross-sectional hypodermal adipose area across standardized epidermal lengths, Mean (hypodermal brown fat; 100 mM Zn++ (Z high))	Cross-sectional deep adipose area across standardized epidermal lengths, Mean (deep white fat)	elastase function as the concentration of zinc-containing components increases (elastase; increasing concentration)
CC(=O)[O-].CC(=O)[O-].[Zn+2] [Zn^++, zinc acetate]	increased	most constantly inhibited	dose-dependant increases in the elastin content of skin	epidermal sloughing and irritation occurs	without local signs of irritation	6710.000 pixels	7724.190 pixels	7203.875 pixels	16786.125 pixels	20799.188 pixels	27365.292 pixels	436809.417 pixels	377185.833 pixels	132251.333 pixels	73011.321 pixels	stabilizing, then destabilizing, then restabilizing elastase function
